Results as given in US6410558B1, “Fungicides for the control of take-all disease of plants” (Monsanto Technology LLC, priority 1991, dated 2002).

Legend:
[1] = test system: Gaeumannomyces graminis var. tritici (Ggt); assay: In vitro Assay: mycelial growth of Ggt on minimal media agar plates containing test compound; format: cell-based; conditions: dark, 19-20° C., 4 to 5 days, diameter of mycelial growth; for In vitro (ppm) 0.1, Percent Inhibition / inhibition at 0.1 ppm: 0.1 ppm in minimal media agar; for In vitro (ppm) 1, Percent Inhibition / inhibition at 1 ppm: 1 ppm in minimal media agar; for In vitro (ppm) 10, Percent Inhibition / inhibition at 10 ppm: 10 ppm in minimal media agar; for inhibition at 0.1 ppm / inhibition at 1 ppm / inhibition at 10 ppm: Gaeumannomyces graminis; for inhibition at 0.1 ppm: read-out: In vitro (ppm) 0.1, Percent Inhibition; for inhibition at 1 ppm: read-out: In vitro (ppm) 1, Percent Inhibition; for inhibition at 10 ppm: read-out: In vitro (ppm) 10, Percent Inhibition
Summary of the method: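 Ggt mycelial diameter read after 4 to 5 days in darkness at 19-20° C, from three 4-mm plugs placed on Czapek Dox minimal agar containing test compound delivered in acetone. Inhibition expressed as percent versus untreated plates, plug size (4 mm) subtracted from both.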

Ggt = assay: In vivo Assay: control of Ggt on wheat grown in pots of Ggt-infested soil, root disease rating; set-up: species or system Gaeumannomyces graminis var. tritici; conditions: 0.5 mg active ingredient per pot, 'Bergen' or 'Anza' wheat in Ggt-infested soil, after four weeks, vs untreated control; for pest or weed control at 0.5 mg/pot: Gaeumannomyces graminis, 672 h, read-out: In vivo, percent disease control
Experimental: Compounds are tested for control of Ggt on ‘Bergen’ or ‘Anza’ varieties of wheat grown in 3-inch square pots containing soil infested with Ggt. The infestation is accomplished by mixing the soil with an inoculum prepared by growing Ggt on ¼ strength potato dextrose agar (4.875 g potato dextrose agar, 5.0 g Bacto agar, 500 mL distilled, deionized water) in plates and using plugs from the plates to infest sterile oats (400 cc whole oats, 350 mL deionized water, autoclaved). After a one-month incubation period at room temperature, the oats are dried and mixed with the soil at 4% v/v. Four wheat seeds are placed on top of the soil in each pot. The test compounds are prepared as an 1:9 acetone/water v/v solution containing 0.18% Tween® 20 to provide a treatment rate of 0.5 mg active ingredient per pot, treated with 3 mL test solution per pot. Five pots are used for each treatment level and the controls, which are untreated, inoculated and non-inoculated pots. After one hour drying time, the seeds are covered with more of the appropriate soil and a layer of vermiculite. The pots are placed in a growth chamber and watered each day. After four weeks, each pot is evaluated for evidence of disease by examination of the seminal roots of each plant under a dissecting microscope. A 0 to 5 rating scale having the following meanings is used:
0=no runner hyphae or lesions present
1=runner hyphae and a few small lesions present on <10% of root system
2=runner hyphae and small lesions present on 10-25% of root system
3=runner hyphae and lesions present on 25-50% of root system
4=runner hyphae and many, large, coalescing lesions on >50% of root system
5=root system and culm completely inundated with lesions and runner hyphae
From each set of five replicates a high and low score is eliminated and a replicate mean is calculated by the average of the remaining three scores. This mean score is then compared to the untreated control score and a percent disease control is calculated.

Compound | In vitro (ppm) 0.1, Percent Inhibition [1] [%] | In vitro (ppm) 1, Percent Inhibition [1] | In vitro (ppm) 10, Percent Inhibition [1] [%] | In vivo, percent disease control (Ggt) [%] | inhibition at 0.1 ppm [1] [%] | inhibition at 1 ppm [1] [%] | inhibition at 10 ppm [1] [%] | pest or weed control at 0.5 mg/pot (Ggt) [%]
2-N,N-dipropyl-6-(trimethylsilyl)benzamide [Example 14] | 7 | 40% | 79 | 92 |  |  |  | 
CCN(CC)C(=O)c1c(C)ccc(F)c1[Si](C)(C)C [Example 1, N,N-Diethyl-3-fluoro-6-methyl-2-(trimethylsilyl)benzamide] |  |  |  |  | 6 | 53 | 74 | 91
CCN(CC)C(=O)c1ccccc1[Si](C)(C)C [Example 2, N,N-Diethyl-2-(trimethylsilyl)benzamide] |  |  |  |  | 14 | 36 | 72 | 74
CCN(CC)C(=O)c1c(C)cccc1[Si](C)(C)C [Example 3, N,N-Diethyl-2-methyl-6-(trimethylsilyl)benzamide] |  |  |  |  | 19 | 58 | 75 | 100
CCN(CC)C(=O)c1cccc(F)c1[Si](C)(C)C [Example 4, N,N-Diethyl-3-fluoro-2-(trimethylsilyl)benzamide] |  |  |  |  | < 0 | < 0 | 57 | 54
CN(C(=O)c1cccc(F)c1[Si](C)(C)C)C(C)(C)C [Example 5, N-(1,1-Dimethylethyl)-3-fluoro-N-methyl-2-(trimethylsilyl)benzamide] |  |  |  |  | < 0 | < 0 | 29 | 24
CCN(CC)C(=O)c1c(C)cccc1C(C)(C)C [Example 6, 2-(1,1-Dimethylethyl)-N,N-diethyl-6-methylbenzamide] |  |  |  |  | 7 | 2 | 47 | 37
CCN(CC)C(=O)c1c(Cl)ccc[c]1[Sn]([CH3])([CH3])[CH3] [Example 7, 2-Chloro-N,N-diethyl-6-(trimethylstannyl)benzamide] | 42 | 77% | 100 | 93 |  |  |  | 
C[Si](C)(C)c1cc(Cl)sc1C(=O)NCCO [Example 263, 5-Chloro-N-(2-hydroxyethyl)-3-trimethylsilyl-2-thiophenecarboxamide] |  |  |  |  | 7 | < 0 | 50 | 
C[Si](C)(C)c1cc(Cl)sc1C(=O)NCCCl [Example 264, 5-Chloro-N-(2-chloroethyl)-3-(trimethylsilyl)-2-thiophenecarboxamide] |  |  |  |  | 2 | 88 | 100 | 
C[Si](C)(C)c1cc(Cl)sc1C(=O)NCCOS(C)(=O)=O [Example 265, 5-Chloro-N-[2[(methylsulfonyl)oxy]ethyl]-3-(trimethylsilyl)-2-thiophenecarboxamide] |  |  |  |  | 5 | 14 | 100 | 
CCNC(=O)c1c(Br)csc1[Si](C)(C)C [Example 267, 4-Bromo-N-ethyl-2-(trimethylsilyl)-3-thiophenecarboxamide] |  |  |  |  | 18 | 64 | 61 | 
CCNC(=O)c1cc(Br)sc1[Si](C)(C)C [Example 268, 5-Bromo-N-ethyl-2-(trimethylsilyl)-3-thiophenecarboxamide] |  |  |  |  | < 0 | < 0 | 100 | 
C=CCN(SC)C(=O)c1sc(Cl)cc1[Si](C)(C)C [Example 273, 5-Chloro-N-(methylthio)-N-2-propenyl-3-(trimethylsilyl)-2-thiophenecarboxamide] |  |  |  |  | 35 | 48 | 100 | 
CCNC(=O)c1sc2c(c1[Si](C)(C)C)CCCC2 [Example 274, N-Ethyl-3-(trimethylsilyl)-4,5,6,7-tetrahydrobenzo[B]thiophene-2-carboxamide] |  |  |  |  | < 0 | 10 | 67 | 
CCNC(=O)c1cc(NC)ccc1[Si](C)(C)C [Example 275, N-Ethyl-5-(methylamino)-2-(trimethylsilyl)benzamide] |  |  |  |  | 22 | 81 | 94 | 
CCNC(=O)c1c([Si](C)(C)C)ccc(C#C[Si](C)(C)C)c1Cl [Example 276, 2-Chloro-N-ethyl-6-(trimethylsilyl)-3-[(trimethylsilyl)ethynyl]benzamide] |  |  |  |  | < 0 | 63 | 84 | 
C=Cc1ccc([Si](C)(C)C)c(C(=O)NCC)c1Cl [Example 277, 2-Chloro-3-ethenyl-N-ethyl-6-(trimethylsilyl)benzamide] |  |  |  |  | 69 | 81 | 94 | 
CCOP(=O)(OCC)N(CC)C(=O)c1c(Cl)cccc1[Si](C)(C)C [Example 278, [2-Chloro-6-(trimethylsilyl)benzoyl]ethylphosphoramidic acid, diethyl ester] |  |  |  |  | < 0 | 50 | 75 | 
CCN(CSC)C(=O)c1c(Cl)cccc1[Si](C)(C)C [Example 279, 2-Chloro-N-ethyl-N-[(methylthio)methyl]-6-(trimethylsilyl)benzamide] |  |  |  |  | < 0 | < 0 | 47 | 
CCNC(=O)c1c(F)cccc1S(=O)(=O)C(C)(C)C [Example 280, 2-[(1,1-Dimethylethyl)sulfonyl]-N-ethyl-6-fluorobenzamide] |  |  |  |  | 24 | 21 | 38 | 
CCN(CC)C(=O)c1c(Cl)cccc1N(C)C(C)(C)C [Example 281, 2-Chloro-6-[(1,1-dimethylethyl)methylamino]-N,N-(diethyl)benzamide] | 4 | N (If the calculation resulted in “0” or less, as compared to the untreated control, a “N” is shown to indicate no control.) | 43 |  |  |  |  | 
CCNC(=O)c1nc(Cl)sc1[Si](C)(C)C [Example 282, 2-Chloro-N-ethyl-5-(trimethylsilyl)-4-thiazolecarboxamide] |  |  |  |  | 3 | 15 | 78 | 
CCNC(=O)C1=CSC(Cl)N1[Si](C)(C)C (centres unmarked) [Example 283, 2-Chloro-N-ethyl-3-(trimethylsilyl)-4-thiazolecarboxamide] |  |  |  |  | < 0 | 3 | 42 | 
CCNC(=O)n1nccc1[Si](C)(C)C [Example 284, N-Ethyl-5-(trimethylsilyl)-1H-pyrazole-1-carboxamide] |  |  |  |  | 23 | 35 | 91 | 
CCNC(=O)c1c(Cl)cccc1C(C)(C)C [Example 285, 2-Chloro-N-ethyl-6-(1,1-dimethylethyl)benzamide] |  |  |  |  | < 0 | 50 | 75 | 
CCNC(=O)c1sc(C)c(C)c1[Si](C)(C)C [Example 286, 4,5-Dimethyl-N-ethyl-3-(trimethylsilyl)-2-thiophenecarboxamide] |  |  |  |  | 76 | 93 | 100 | 
CC(C)N(O)C(=O)c1sc(Cl)cc1[Si](C)(C)C [Example 287, 5-Chloro-N-hydroxy-N-(1-methylethyl)-3-(trimethylsilyl)-2-thiophenecarboxamide] |  |  |  |  | 64 | 71 | 78 | 
CCNC(=O)c1cnn(C)c1[Si](C)(C)C [Example 288, N-Ethyl-1-methyl-5-(trimethylsilyl)-1H-pyrazole-4-carboxamide] |  |  |  |  | < 0 | < 0 | 53 | 
